Test results from patent US20150203561A1, “BETA THYMOSIN FRAGMENTS” (REGENERX BIOPHARMACEUTICALS, INC., priority 2008, published 2015).

Legend:
human dermal fibroblasts [1] = assay: Collagen secretion, colorimetric assay; format: cell-based; parameters: key to Stimulates collagens / Inhibits collagens: P = active; U = useful; conditions: for Inhibits collagens / Stimulates collagens: summary of peptide uses
Description: (§1) Effect of Tb4 and peptides on collagen secretion • Human dermal fibroblasts (Fb) were cultured to 80% confluence • Cells were treated with 1 μg/ml Tb4 or peptides for 24, 48, or 72 hours. Cells were treated once/day. • Culture supernatants (n=3, experiments repeated 5 times) were assayed for collagen secretion using a colorimetric assay that detects collagen types I, II, III, IV and V, and possibly VII

IKKb = molecular target: T1, IKKb (Homo sapiens, UniProt O14920); assay: Cell-free IkBa phosphorylation ELISA (NFkB signaling pathway); format: biochemical; parameters: key to Inhibits IkBa phosphorylation: P = active; U = useful
T1 sequence (O14920 1-756): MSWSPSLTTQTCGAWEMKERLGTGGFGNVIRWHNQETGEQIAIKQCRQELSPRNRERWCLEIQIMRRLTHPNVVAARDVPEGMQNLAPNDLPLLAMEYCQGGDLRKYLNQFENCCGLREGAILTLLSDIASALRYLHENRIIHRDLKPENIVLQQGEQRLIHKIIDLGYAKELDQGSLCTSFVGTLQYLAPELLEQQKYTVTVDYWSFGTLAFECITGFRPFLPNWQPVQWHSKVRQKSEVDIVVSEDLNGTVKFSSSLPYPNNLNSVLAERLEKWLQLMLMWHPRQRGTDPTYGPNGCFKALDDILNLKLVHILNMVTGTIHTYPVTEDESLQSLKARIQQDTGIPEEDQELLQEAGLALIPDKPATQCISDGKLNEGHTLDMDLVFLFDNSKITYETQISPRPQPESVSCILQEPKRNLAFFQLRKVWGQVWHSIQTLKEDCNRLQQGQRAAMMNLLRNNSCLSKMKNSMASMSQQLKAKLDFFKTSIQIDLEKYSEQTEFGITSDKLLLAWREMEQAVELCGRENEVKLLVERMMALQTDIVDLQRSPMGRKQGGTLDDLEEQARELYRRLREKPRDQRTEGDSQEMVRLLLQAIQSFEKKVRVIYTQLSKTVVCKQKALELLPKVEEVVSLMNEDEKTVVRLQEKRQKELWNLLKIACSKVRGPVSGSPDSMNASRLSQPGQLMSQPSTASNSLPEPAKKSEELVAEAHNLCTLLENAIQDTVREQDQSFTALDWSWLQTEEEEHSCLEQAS
Description: Effect of Tb4 and peptides on the NFkB signaling pathway • Cell-free assay • Prepared 1.0, 0.1, and 0.01 ng/ml solutions of Tb4 or peptides in kinase buffer supplied with kit • Added 10 μl of the solutions to wells of a 96-well plate coated with lkBa • IKKb (20 mU) was added to wells • 90 μl kinase reaction buffer (containing ATP) was added to the wells • ELISA to detect phosphorylated lkBa

neurite outgrowth = assay: Promotion of neurite outgrowth (summary table); parameters: key: P = active; U = useful; conditions: summary of peptide uses
[2] = test system: tissue damage caused by UV radiation; assay: UV radiation tissue damage (summary table); parameters: key: P = active; U = useful; conditions: summary of peptide uses
neuron survival = assay: Promotion of neuron survival (summary table); parameters: key: P = active; U = useful; conditions: summary of peptide uses
L1 = assay: Stimulation of L1 production (summary table); parameters: key: P = active; U = useful; conditions: summary of peptide uses
[3] = test system: p65 subunit of NFkB in human corneal epithelial cells; assay: NFkB nuclear translocation; format: cell-based; parameters: key: P = active; U = useful; conditions: summary of peptide uses
Description: Analysis of NFkB Nuclear Translocation • Human corneal epithelial cells were cultured to 80% confluence • Cells were pre-treated with 1 μg/ml Tb4 or peptide 4A or 6A for one hour • Cells were stimulated with 10 ng/ml TNF-a in the presence or absence of Tb4 or peptides for 15 minutes • Cells were fixed and labeled with antibodies to the p65 subunit of NFkB

human dermal fibroblasts [4] = assay: Elastin secretion, colorimetric assay; format: cell-based; parameters: key to Stimulates Elastin: P = active; U = useful; conditions: for Secretion of elastin: dermal Fb, 1 μg/ml once/day, 24, 48, or 72 hours; for Stimulates Elastin: summary of peptide uses
Description: as §1, with “elastin” for “collagen”, “6” for “5”, “• Data was analyzed using the t-test” for “that detects collagen types I, II, III, IV and V, and possibly VII”

[5] = test system: Transformed human corneal epithelial cells (HCET); assay: Collagen type IV secretion ELISA; format: cell-based; parameters: key to Stimulates collagen IV: P = active; U = useful; conditions: for Collagen type IV secretion: corneal epithelial cells, 1 μg/ml, 24 hours; for Stimulates collagen IV: summary of peptide uses
Description: Effect of Tb4 and peptides on collagen type IV secretion • Transformed human corneal epithelial cells (HCET) were cultured to 80% confluence • Cells were treated with 1 μg/ml Tb4 or peptides for 24 hours • Culture supernatant samples (n=3 per experiment, total of 4 experiments) were analyzed using a collagen type IV ELISA • Data was analyzed using the t-test

human dermal fibroblasts [6] = assay: LDH cytotoxicity assay in human dermal fibroblasts exposed to cytotoxic agents; format: cell-based; parameters: key to Protects from cytotoxicity: P = active; U = useful; conditions: for Protects from cytotoxicity: summary of peptide uses
Description: Dose Response Analysis of Peptide 3A • Human dermal fibroblasts (Fb, Cascade Biologics, OR) were cultured to 80% confluence • 2 ml CHX (0.002%) in basal medium ±1 μg/ml Tb4 or 1.0, 0.1, 0.01, or 0.001 μg/ml peptide 3A was added to Fb for 1, 2, 3, or 4 hours • 100 μl culture medium (n=4) was added to 100 μl LDH reagent and incubated at room temperature for 20 minutes • OD500 nm was read and averages ±SEM were calculated • Data was analyzed with probability of p≦0.05

human dermal Fb = assay: CHX-induced apoptosis (APOPercentage dye) in human dermal Fb; format: cell-based; parameters: key to Inhibits apoptosis: P = active; U = useful; conditions: summary of peptide uses
Description: Effect of Tb4 and Peptide 3A on CHX-induced apoptosis • Human dermal Fb were cultured to 80% confluence • Fb were treated with 0.002% CHX+1 μg/ml Tb4 or peptide 3A, 4A or 6A for 1.5 hours • APOPercentage “dye” was added to the Fb cultures at a 1:50 dilution for an additional 30 minutes • Excess dye was washed from the cells, and digital images were captured. Cells dyed red were apoptotic • Adobe Photoshop was used to calculate the number of red pixels in six digitized images for each treatment • Statistical analysis was done using the t-test

cell migration = assay: Stimulation of migration (summary table); format: cell-based; parameters: key: P = active; U = useful; conditions: summary of peptide uses
[7] = test system: TNF-a-stimulated IL8 secretion; assay: Suppression of inflammation (summary table; IL-8 secretion); format: cell-based, human; parameters: key: P = active; U = useful; conditions: summary of peptide uses
Description: Analysis of IL-8 Secretion • Human corneal epithelial cells or dermal Fb were cultured to 80% confluence • Cells were pre-treated with 1 μg/ml Tb4 or peptides for one hour • Cells were stimulated with 10 ng/ml TNF-a in the presence or absence of Tb4 or peptides • Culture medium was analyzed for secreted IL-8 by ELISA (n=3, experiments repeated twice) • Data was analyzed using the t-test

Row | Inhibition of IkBa phosphorylation (NFkB signaling pathway) (IKKb; cell-free, 1.0, 0.1, and 0.01 ng/ml) | Inhibits IkBa phosphorylation (IKKb; summary of peptide uses) | Substance | Inhibits collagens (human dermal fibroblasts [1]) | Promotes neurite outgrowth (neurite outgrowth) | Inhibits tissue damage caused by UV radiation [2] | Protects tissue from UV radiation damage [2] | Promotes neuron survival (neuron survival) | Stimulates L1 production (L1) | Inhibits NFkB translocation [3] | Secretion of elastin (human dermal fibroblasts [4]) | Stimulates Elastin (human dermal fibroblasts [4]) | Collagen type IV secretion [5] | Stimulates collagen IV [5] | Protection of Fb against the cytotoxic effects of CHX (LDH) (human dermal fibroblasts [6]; 1 μg/ml, 0.002% CHX, 2 hour exposure) | Protects from cytotoxicity (human dermal fibroblasts [6]) | Inhibits apoptosis (human dermal Fb) | Stimulates collagens (human dermal fibroblasts [1]) | Stimulates Migration (cell migration) | Suppresses inflammation [7] | Stimulation of secretion of collagens (human dermal fibroblasts [1]; human dermal fibroblasts, 1 μg/ml once/day, after 3 days of treatment)
1 | may have an effect | P | Ac-Ile-Glu-Gln-Glu-Lys-Gln-Ala-Gly-Glu-Ser-OH (Ac-IEQEKQAGES-OH) [Peptide 6B] | P | U | U | U | U | U |  |  |  |  |  |  |  |  |  |  |  | 
2 |  |  | H-Leu-Lys-Lys-Thr-Glu-Thr-Gln-OH (H-LKKTETQ-OH) [Peptide 4A] |  | U | U | U | U | U | P | stimulates | P | stimulate | P |  |  |  |  |  |  | 
3 |  |  | Ac-SDKPDMAEIEKFDKS-OH [Peptide 3B] | P | U | U | U | U | U |  |  |  |  |  | protect | P |  |  |  |  | 
4 |  |  | H-Ser-Asp-Lys-Pro-OH (H-SDKP-OH) [Peptide 2A] | P | U | U | U | U | U |  |  |  | stimulate | P |  |  |  |  |  |  | 
5 |  |  | Ac-Met-Ala-Glu-Ile-Glu-Lys-Phe-Asp-Lys-Ser-OH (Ac-MAEIEKFDKS-OH) [Peptide 7B] | U | U | U | U | U | U |  | stimulate | U |  |  |  |  |  |  |  |  | 
6 |  |  | Ac-SDKPDMAEIEKFDKSKLKKTET-OH [Fragment Ab] | U | U | U | U | U | U |  |  | U |  |  |  | U | U | U | U | U | 
7 |  |  | Ac-SDKPDMAEIEKFDKSKLKKTETQ-OH [Fragment Bb] | U | U | U | U | U | U |  |  | U |  |  |  | U | U | U | U | U | 
8 |  |  | H-Glu-Lys-Asn-Pro-Leu-Pro-Ser-Lys-Glu-Thr-OH (H-EKNPLPSKET-OH) [Peptide 5A] |  | U | U | U | U | U |  |  |  |  |  |  |  |  |  | P |  | 
9 |  |  | Ac-Glu-Lys-Asn-Pro-Leu-Pro-Ser-Lys-Glu-Thr-OH (Ac-EKNPLPSKET-OH) [Peptide 5B] |  | U | U | U | U | U |  |  |  |  |  |  |  |  | P |  |  | stimulates
10 |  |  | Ac-Leu-Lys-Lys-Thr-Glu-Thr-Gln-OH (Ac-LKKTETQ-OH) [Peptide 4B] |  | U | U | U | U | U |  | stimulate | P |  |  |  |  |  |  | P |  | 
11 |  |  | H-Met-Ala-Glu-Ile-Glu-Lys-Phe-Asp-Lys-Ser-OH (H-MAEIEKFDKS-OH) [Peptide 7A] | P | U | U | U | U | U |  |  |  |  |  |  |  |  |  |  |  | 
12 |  |  | H-Ile-Glu-Gln-Glu-Lys-Gln-Ala-Gly-Glu-Ser-OH (H-IEQEKQAGES-OH) [Peptide 6A] | P | U | U | U | U | U |  |  |  |  |  |  |  |  |  |  |  | 
13 |  |  | Ac-Leu-Lys-Lys-Thr-Glu-Thr-OH (Ac-LKKTET-OH) [Peptide 1B] | P | U | U | U | U | U |  |  |  |  |  |  |  |  |  |  |  | 
